In ChEMBL document CHEMBL1201862, “PubChem BioAssay data set” (2004):
Calls of active or inactive are those of the source.

Columns and labels:
Vero [1] = test: viability of Vero cells under compound – cytotoxicity control for flavivirus capping enzyme inhibitors (AID 588742); assay type: functional; settings: Chlorocebus sabaeus
Vero [2] = test: cells; assay type: functional; settings: Chlorocebus sabaeus
[3] = target: T1, Voltage-gated N-type calcium channel alpha-1B subunit/Amyloid beta A4 precursor protein-binding family A member 1 (Homo sapiens, UniProt Q00975+Q02410); assay type: protein assay
[4] = target: Induced myeloid leukemia cell differentiation protein Mcl-1 (Homo sapiens, UniProt Q07820); assay type: functional
[5] = target: T2, Zinc finger protein mex-5 (Caenorhabditis elegans, UniProt Q9XUB2); test: potency of MEX-5 RNA-binding blockers – biochemical, C. elegans, fluorescence polarization, dose response (AID 1960)
T2 sequence (Q9XUB2 whole entry): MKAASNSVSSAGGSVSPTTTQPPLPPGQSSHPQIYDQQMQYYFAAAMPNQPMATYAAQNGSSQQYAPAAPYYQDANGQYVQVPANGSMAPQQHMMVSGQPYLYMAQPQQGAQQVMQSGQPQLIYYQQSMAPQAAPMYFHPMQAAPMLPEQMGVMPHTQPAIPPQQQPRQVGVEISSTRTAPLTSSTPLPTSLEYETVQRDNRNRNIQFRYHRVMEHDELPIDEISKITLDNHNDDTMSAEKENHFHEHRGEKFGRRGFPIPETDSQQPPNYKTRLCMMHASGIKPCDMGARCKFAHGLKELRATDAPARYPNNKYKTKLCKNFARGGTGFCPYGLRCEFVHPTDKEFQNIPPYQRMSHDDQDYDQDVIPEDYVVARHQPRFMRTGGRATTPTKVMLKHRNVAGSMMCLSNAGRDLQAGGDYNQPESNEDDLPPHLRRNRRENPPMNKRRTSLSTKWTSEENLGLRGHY

[6] = target: T3, Polyadenylate-binding protein 1 (Homo sapiens, UniProt P11940); test: MLLE binding blockers, Cy5 peptide tracer – biochemical, fluorescence polarization, Cy5-PAM2 peptide, secondary, miRNA deadenylation inhibitor project, dose response (AID 602260); assay type: functional; settings: read-out: IC50_Mean
[7] = target: T1, Voltage-gated N-type calcium channel alpha-1B subunit/Amyloid beta A4 precursor protein-binding family A member 1; assay type: protein assay; remark: listed apart in the source
Hexokinase HKDC1 = target: T4, Hexokinase HKDC1 (Homo sapiens, UniProt Q2TB90); test: inhibition of HKDC1 glucose phosphorylation – biochemical, W721R variant, dose response (AID 504729); assay type: functional
T4 sequence (Q2TB90 whole entry): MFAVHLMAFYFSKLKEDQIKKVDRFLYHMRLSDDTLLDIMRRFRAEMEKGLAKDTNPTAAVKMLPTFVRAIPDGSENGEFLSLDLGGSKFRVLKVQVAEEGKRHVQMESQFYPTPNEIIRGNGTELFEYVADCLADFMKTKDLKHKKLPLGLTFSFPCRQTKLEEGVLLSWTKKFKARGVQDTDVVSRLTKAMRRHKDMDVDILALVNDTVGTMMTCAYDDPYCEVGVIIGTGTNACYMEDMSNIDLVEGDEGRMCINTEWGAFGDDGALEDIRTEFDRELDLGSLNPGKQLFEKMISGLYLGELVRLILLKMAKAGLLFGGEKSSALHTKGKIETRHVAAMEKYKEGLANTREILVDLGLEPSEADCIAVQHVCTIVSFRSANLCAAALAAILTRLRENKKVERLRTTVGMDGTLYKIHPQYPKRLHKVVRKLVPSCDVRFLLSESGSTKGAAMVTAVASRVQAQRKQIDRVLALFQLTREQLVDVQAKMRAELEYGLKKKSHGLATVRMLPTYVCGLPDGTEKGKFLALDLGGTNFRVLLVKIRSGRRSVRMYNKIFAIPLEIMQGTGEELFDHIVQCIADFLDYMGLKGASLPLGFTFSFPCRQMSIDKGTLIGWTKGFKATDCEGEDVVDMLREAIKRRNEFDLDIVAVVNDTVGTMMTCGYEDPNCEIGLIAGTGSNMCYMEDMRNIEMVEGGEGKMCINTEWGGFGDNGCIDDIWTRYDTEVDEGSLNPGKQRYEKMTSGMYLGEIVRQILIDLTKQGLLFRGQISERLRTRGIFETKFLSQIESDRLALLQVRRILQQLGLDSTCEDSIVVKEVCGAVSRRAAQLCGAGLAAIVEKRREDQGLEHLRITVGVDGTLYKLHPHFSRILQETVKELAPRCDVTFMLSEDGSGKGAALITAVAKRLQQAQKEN

[8] = target: T5, RNA-binding protein pos-1 (Caenorhabditis elegans, UniProt G5EF15); test: disruptors of C. elegans POS-1 RNA interaction – biochemical, fluorescence polarization, dose response (AID 1964);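 also: purified POS-1 fused to maltose binding protein made in E. coli; potency of compounds blocking POS-1 binding to fluorescent RNA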
T5 sequence (G5EF15 whole entry): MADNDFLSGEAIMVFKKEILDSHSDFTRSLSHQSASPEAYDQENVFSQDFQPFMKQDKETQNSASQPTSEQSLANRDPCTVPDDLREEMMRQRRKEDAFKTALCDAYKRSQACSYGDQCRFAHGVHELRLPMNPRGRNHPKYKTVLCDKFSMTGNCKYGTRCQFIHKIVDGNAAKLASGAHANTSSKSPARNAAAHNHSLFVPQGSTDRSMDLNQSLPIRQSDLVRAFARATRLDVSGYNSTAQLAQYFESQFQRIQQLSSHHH

[9] = target: T3, Polyadenylate-binding protein 1; test: MLLE domain peptide-binding blockers, IC50 – biochemical, fluorescence polarization, FITC-PAM2 peptide, dose response (AID 602259); assay type: functional; settings: read-out: IC50_Mean
Genome polyprotein = Genome polyprotein (dengue virus type 2, UniProt P29990); test: flavivirus cap methylation enzyme inhibition – biochemical, confirmation dose response, primary screen (AID 588689); assay type: functional
[10] = target: T6, Histone-lysine N-methyltransferase NSD2 (Homo sapiens, UniProt O96028); assay type: biochemical
T6 sequence (O96028 whole entry): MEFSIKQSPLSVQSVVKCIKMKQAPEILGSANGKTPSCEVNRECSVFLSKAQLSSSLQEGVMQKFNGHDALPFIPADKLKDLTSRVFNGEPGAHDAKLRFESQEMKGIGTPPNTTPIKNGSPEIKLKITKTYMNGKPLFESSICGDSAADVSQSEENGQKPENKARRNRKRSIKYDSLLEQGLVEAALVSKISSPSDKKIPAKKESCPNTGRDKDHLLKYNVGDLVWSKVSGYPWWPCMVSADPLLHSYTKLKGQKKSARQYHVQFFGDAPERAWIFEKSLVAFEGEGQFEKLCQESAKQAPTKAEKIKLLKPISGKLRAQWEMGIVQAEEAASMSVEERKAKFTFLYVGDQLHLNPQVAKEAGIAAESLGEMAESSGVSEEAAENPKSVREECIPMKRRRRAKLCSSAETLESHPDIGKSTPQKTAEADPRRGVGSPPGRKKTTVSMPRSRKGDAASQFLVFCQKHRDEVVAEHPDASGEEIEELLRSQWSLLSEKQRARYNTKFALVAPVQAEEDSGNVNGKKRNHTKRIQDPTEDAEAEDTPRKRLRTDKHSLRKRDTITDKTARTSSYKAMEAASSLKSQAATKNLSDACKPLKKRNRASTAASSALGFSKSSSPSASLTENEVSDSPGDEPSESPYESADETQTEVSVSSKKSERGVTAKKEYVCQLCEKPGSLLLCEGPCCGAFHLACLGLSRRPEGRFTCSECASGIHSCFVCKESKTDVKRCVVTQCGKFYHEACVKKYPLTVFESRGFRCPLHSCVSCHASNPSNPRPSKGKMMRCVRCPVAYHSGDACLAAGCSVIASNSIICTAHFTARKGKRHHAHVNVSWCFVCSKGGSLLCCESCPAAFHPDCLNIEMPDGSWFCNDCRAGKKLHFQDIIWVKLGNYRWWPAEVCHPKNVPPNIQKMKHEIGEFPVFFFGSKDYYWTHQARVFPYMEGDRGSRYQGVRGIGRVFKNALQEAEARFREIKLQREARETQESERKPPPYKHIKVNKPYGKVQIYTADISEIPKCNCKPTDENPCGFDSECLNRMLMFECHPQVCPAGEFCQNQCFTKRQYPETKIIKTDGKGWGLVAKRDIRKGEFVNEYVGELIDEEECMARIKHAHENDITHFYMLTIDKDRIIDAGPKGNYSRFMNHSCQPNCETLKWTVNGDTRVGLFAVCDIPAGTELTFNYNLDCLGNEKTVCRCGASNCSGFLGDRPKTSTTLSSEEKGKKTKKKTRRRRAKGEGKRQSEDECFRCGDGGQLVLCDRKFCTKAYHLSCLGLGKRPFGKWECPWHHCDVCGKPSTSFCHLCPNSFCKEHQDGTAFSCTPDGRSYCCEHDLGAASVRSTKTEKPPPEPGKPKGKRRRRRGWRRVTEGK

Cytochrome P450 3A4 = Cytochrome P450 3A4 (Homo sapiens, UniProt P08684);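 also: CYP3A4 tested as one member of a cytochrome P450 panel screen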
[11] = target: T7, Replicative DNA helicase DnaB (Mycobacterium tuberculosis, UniProt P9WMR3); test: DnaB intein splicing inhibitors, dose response, biochemical, cell-free fluorescence (AID 449749); assay type: functional
T7 sequence (P9WMR3 whole entry): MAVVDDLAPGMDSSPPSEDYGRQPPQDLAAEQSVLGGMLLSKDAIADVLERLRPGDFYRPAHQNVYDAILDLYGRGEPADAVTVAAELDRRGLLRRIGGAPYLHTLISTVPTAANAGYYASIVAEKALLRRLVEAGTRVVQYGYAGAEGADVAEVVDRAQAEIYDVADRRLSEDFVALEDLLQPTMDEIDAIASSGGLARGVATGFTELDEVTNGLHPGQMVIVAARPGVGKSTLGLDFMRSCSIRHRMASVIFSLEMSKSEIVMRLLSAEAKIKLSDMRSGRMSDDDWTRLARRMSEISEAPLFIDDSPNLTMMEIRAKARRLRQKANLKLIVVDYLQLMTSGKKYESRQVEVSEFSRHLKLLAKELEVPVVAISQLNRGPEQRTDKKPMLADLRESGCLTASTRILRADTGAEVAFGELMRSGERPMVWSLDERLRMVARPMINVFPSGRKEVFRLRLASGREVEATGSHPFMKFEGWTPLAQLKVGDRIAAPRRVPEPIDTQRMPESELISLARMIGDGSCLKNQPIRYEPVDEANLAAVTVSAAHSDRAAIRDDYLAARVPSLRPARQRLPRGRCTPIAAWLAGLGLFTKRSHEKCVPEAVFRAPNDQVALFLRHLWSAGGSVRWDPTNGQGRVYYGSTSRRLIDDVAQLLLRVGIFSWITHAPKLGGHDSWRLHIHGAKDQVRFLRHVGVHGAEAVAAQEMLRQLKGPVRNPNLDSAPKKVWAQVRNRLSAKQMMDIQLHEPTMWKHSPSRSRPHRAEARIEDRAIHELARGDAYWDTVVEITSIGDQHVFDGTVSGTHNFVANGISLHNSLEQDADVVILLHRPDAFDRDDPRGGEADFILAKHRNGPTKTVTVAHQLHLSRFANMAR

Protein RecA = target: T8, Protein RecA (Mycobacterium tuberculosis, UniProt P9WHJ3); test: Fluorescence Cell-Free Homogeneous Dose Retest to Identify Inhibitors of RecA-Intein Splicing Activity. [Related pubchem assays (depositor defined):AID2097, AID2223, AID489010, AID492950]; assay type: functional
T8 sequence (P9WHJ3 whole entry): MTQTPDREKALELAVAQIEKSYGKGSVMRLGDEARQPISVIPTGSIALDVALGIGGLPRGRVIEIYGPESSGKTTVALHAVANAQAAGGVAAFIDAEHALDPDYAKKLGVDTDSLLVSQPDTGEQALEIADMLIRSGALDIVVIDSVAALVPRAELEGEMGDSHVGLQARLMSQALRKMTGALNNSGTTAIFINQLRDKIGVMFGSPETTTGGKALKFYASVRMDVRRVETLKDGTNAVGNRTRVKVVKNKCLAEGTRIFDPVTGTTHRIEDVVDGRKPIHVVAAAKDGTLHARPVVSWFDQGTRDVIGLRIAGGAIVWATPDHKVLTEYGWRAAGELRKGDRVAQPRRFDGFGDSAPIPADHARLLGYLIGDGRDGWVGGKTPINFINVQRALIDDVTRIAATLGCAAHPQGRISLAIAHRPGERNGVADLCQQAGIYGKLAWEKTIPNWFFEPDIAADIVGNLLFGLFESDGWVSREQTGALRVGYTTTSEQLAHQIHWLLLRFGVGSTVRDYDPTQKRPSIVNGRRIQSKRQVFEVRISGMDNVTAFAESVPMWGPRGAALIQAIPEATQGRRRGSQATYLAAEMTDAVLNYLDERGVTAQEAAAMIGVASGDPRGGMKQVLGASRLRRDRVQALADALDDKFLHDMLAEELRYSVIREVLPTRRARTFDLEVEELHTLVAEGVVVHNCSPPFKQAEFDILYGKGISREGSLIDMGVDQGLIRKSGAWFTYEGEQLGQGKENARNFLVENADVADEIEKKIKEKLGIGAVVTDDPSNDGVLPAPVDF

Bcl-2-like protein 10 = Bcl-2-like protein 10 (Homo sapiens, UniProt Q9HD36); test: Bcl-B/TR3 peptide binding disruption – biochemical, fluorescence polarization, FITC-TR3 peptide, selectivity assay for Bfl-1 inhibitor project, primary screen (AID 748);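 also: fluorescence polarization from a fluorescein-labelled TR3 peptide binding purified Bcl-B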
Cytochrome P450 2D6 = Cytochrome P450 2D6 (Homo sapiens, UniProt P10635);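 also: CYP2D6 member of a cytochrome P450 panel assay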
Cytochrome P450 2C19 = Cytochrome P450 2C19 (Homo sapiens, UniProt P33261); test: Cytochrome panel assay with activity outcomes. Panel member name: p450-cyp2c19 Compounds with AC50 equal or less than 10 uM are considered active; assay type: functional; settings: read-out: AC50

T3 sequence (P11940 whole entry): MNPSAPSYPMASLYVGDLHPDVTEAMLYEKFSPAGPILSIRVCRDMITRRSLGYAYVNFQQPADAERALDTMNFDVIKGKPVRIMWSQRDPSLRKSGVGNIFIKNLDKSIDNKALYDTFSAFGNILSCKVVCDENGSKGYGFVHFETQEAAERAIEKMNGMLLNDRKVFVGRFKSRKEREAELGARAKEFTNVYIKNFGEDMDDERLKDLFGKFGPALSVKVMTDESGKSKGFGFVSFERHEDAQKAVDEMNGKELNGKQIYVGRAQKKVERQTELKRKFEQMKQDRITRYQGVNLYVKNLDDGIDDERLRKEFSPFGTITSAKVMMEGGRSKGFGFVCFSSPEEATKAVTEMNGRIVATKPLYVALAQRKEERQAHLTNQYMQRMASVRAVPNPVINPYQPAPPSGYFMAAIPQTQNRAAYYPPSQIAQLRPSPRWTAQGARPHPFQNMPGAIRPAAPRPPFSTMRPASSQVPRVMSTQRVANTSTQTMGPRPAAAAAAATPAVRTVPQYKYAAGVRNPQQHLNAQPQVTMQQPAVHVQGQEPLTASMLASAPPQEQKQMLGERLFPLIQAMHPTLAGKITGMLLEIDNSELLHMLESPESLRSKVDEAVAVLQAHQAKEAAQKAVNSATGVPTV
T1 sequence (Q00975 whole entry): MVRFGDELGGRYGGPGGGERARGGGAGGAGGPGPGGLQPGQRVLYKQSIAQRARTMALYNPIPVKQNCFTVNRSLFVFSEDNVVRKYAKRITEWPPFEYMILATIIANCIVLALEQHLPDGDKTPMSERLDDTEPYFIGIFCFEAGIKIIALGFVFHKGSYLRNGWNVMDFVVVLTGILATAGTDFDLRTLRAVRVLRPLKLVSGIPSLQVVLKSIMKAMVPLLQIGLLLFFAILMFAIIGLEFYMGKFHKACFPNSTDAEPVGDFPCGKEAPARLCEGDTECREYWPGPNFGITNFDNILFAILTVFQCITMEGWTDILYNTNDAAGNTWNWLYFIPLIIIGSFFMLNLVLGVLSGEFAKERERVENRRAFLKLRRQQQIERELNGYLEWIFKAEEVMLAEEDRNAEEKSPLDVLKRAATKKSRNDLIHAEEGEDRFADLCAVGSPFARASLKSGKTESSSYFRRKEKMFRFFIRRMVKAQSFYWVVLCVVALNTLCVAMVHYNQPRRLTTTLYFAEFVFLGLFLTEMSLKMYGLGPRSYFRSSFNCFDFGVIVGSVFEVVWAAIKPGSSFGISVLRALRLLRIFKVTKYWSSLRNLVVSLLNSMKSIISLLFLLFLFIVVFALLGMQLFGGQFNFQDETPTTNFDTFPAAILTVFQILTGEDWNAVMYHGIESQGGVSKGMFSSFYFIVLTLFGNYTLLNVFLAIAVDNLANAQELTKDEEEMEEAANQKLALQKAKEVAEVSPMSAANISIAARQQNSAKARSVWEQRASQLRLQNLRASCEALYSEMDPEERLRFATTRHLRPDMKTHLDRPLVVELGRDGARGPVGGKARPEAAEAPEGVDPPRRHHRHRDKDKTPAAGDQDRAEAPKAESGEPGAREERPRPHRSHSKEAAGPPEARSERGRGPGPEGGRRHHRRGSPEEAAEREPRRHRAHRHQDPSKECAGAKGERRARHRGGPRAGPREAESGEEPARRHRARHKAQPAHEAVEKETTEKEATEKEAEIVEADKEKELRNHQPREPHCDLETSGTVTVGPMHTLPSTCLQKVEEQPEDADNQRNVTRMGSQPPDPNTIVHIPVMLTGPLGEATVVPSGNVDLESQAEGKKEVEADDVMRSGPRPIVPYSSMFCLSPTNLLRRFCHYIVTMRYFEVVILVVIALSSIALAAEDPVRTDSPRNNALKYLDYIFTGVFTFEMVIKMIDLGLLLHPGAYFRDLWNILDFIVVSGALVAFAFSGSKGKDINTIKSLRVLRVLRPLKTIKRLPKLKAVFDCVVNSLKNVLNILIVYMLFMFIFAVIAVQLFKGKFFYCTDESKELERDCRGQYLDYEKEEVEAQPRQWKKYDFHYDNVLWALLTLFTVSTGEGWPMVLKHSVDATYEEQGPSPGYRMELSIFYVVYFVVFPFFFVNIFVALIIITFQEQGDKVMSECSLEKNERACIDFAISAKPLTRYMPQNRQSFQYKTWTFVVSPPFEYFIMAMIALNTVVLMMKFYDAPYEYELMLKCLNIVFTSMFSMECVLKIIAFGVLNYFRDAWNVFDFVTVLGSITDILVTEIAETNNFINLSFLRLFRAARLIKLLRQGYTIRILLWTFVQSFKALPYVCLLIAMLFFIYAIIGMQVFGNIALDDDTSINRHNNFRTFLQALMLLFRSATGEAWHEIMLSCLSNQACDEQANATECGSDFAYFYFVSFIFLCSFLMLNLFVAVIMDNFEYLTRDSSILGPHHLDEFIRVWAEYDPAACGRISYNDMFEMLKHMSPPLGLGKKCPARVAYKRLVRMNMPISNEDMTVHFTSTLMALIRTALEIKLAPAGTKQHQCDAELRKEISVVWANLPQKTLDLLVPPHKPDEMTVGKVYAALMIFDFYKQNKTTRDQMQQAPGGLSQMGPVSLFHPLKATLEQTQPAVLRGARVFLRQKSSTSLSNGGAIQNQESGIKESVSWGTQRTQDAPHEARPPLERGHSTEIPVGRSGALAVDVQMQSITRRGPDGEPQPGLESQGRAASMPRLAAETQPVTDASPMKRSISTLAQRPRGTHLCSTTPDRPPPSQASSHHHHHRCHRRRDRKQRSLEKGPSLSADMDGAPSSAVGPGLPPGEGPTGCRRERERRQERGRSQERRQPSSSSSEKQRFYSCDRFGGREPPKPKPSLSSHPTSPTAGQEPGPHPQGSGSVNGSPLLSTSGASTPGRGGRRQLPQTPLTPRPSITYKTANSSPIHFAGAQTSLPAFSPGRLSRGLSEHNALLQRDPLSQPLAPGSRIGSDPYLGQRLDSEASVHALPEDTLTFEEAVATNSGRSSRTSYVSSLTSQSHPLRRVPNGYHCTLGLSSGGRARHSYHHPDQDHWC
T1 sequence (Q02410 whole entry): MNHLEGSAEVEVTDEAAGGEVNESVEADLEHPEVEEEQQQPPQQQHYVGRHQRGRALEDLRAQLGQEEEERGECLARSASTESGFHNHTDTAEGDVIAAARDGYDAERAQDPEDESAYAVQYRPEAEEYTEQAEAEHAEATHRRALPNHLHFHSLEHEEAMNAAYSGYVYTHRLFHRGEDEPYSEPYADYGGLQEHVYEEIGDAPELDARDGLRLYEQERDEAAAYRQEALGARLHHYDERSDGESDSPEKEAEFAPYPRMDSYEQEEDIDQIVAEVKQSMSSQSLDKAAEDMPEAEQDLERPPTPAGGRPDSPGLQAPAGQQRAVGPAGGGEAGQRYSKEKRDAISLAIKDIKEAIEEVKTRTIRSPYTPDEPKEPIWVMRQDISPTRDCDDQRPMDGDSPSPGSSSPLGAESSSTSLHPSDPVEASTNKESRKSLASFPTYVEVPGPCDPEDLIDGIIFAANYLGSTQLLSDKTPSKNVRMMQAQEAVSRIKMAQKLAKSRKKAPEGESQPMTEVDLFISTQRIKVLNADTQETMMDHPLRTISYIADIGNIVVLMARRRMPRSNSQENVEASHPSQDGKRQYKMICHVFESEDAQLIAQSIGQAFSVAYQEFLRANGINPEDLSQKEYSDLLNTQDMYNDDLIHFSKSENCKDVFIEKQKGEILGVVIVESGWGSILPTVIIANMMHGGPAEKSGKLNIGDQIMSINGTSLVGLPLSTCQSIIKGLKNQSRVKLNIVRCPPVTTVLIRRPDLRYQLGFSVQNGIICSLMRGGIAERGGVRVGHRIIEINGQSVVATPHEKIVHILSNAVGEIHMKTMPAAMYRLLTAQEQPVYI
Sequence of Cytochrome P450 2D6 (P10635 whole entry): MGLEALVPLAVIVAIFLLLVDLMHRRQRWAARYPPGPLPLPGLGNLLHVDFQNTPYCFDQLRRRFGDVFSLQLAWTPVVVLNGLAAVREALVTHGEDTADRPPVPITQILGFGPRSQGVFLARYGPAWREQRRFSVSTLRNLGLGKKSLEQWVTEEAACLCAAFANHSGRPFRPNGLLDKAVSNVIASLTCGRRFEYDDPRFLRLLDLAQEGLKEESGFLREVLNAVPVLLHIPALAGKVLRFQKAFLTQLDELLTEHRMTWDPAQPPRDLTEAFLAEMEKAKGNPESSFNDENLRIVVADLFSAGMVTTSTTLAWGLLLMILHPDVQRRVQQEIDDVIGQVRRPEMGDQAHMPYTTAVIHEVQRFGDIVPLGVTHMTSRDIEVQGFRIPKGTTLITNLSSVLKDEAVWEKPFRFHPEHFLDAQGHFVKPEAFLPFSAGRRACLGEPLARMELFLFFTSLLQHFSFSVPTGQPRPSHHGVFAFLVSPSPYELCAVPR
Sequence of Induced myeloid leukemia cell differentiation protein Mcl-1 (Q07820 whole entry): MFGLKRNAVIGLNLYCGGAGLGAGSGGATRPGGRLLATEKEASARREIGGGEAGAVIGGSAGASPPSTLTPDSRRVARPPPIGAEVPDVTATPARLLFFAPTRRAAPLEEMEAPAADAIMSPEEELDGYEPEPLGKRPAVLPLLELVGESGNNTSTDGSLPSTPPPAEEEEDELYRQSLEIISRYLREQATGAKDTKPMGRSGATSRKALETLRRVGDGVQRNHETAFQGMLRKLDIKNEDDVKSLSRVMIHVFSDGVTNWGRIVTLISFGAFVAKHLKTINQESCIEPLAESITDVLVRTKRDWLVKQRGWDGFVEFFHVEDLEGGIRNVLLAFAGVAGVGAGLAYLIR
Sequence of Bcl-2-like protein 10 (Q9HD36 whole entry): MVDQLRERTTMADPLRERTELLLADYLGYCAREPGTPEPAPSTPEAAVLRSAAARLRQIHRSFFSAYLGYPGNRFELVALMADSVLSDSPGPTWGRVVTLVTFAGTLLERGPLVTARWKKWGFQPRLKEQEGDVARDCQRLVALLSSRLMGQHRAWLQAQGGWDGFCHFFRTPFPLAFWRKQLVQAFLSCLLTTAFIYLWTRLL

SMILES | CC50 (Vero [1]) | CC50 (Vero [2]) | IC50 [3] | IC50 [4] | EC50 [5] | IC50 [6] | IC50 [7] | IC50 (Hexokinase HKDC1) | EC50 [8] | IC50 [9] | IC50 (Genome polyprotein) | AC50 [10] | AC50 (Cytochrome P450 3A4) | AC50 [11] | EC50 (Protein RecA) | IC50 (Bcl-2-like protein 10) | AC50 (Cytochrome P450 2D6) | AC50 (Cytochrome P450 2C19)
CCN(CC)Cc1cc(O)c(CN(CC)CC)cc1O | > 40 µM (active) | > 25 µM (active) | > 56.8 µM (not active) | 1.58 µM (active) | 2.77 µM (active) | > 66 µM (inactive) | 2.05 µM (active) | 17.4 µM (active) | 14.2 µM (active) | > 66 µM (inactive) | 28.1 µM (active) | > 20 µM (inactive) | – | – | – | – | – | –
Cc1cnnn1-c1ccc(C(=O)CCl)cc1 | – | – | – | – | – | – | – | – | – | – | – | – | 25.1 µM (inconclusive) | 29.1 µM (active) | 11.3 µM (active) | > 50 µM (inactive) | 0.0794 µM (inconclusive) | 39.8 µM (inconclusive)
